Patent US8022079B2, “Methods of modulating PPAR gamma-type receptors” (Galderma Research & Development, priority 2003, dated 2011)
Counter-ions that a name gives are not always drawn.

Experiments:
PPARγ = target: T1, PPARγ (Homo sapiens, UniProt P37231); experiment: Crossover-curve PPAR transactivation test (PPARγ); format: cell-based; details: HeLN cells stably transfected with ERE-βGlob-Luc-SV-Neo and Gal-hPPARγ; Schild regression against reference agonist; n.a. means not active; read-out: PPARγ Kd app
T1 sequence (P37231 238-505 limits assumed): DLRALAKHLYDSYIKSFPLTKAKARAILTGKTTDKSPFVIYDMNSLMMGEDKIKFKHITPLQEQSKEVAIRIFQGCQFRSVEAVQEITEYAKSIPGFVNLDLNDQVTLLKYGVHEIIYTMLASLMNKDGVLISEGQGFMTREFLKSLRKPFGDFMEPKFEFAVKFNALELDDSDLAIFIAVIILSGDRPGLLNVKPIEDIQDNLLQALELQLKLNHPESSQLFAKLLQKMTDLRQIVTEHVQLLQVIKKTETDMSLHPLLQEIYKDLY
Method: (§1) The activation of PPAR receptors with an agonist (activator) in HeLN cells leads to the expression of a reporter gene, luciferase, which, in the presence of a substrate, generates light. The modulation of the PPAR receptors is measured by quantifying the luminescence produced after incubating the cells in the presence of a reference agonist. The ligands displace the agonist from its site. The measurement of the activity is performed by quantifying the light produced. This measurement makes it possible to determine the modulatory activity of the compounds according to the invention by determining the constant that represents the affinity of the molecule for the PPAR receptor. Since this value can fluctuate depending on the basal activity and the expression of the receptor, it is referred to as Kd apparent (KdApp in nM).
(§2) To determine this constant, “crossover curves” of the test product against a reference agonist are performed in a 96-well plate: 10 concentrations of the test product plus a concentration 0 are arranged in a line, and 7 concentrations of the agonist plus a concentration 0 are arranged in a column. This represents 88 measurement points for 1 product and 1 receptor. The remaining 8 wells are used for repeatability controls.
(§3) Measurements are also taken for total agonist controls with the same products.
(§4) The HeLN cell lines used are stable transfectants containing the plasmids ERE-βGlob-Luc-SV-Neo (reporter gene) and PPAR (α, δ, γ) Gal-hPPAR. These cells are inoculated into 96-well plates at a rate of 10 000 cells per well in 100 μl of DMEM medium without phenol red and supplemented with 10% of defatted calf serum. The plates are then incubated at 37° C. and 7% CO2 for 16 hours.
(§5) The various dilutions of the test products and of the reference ligand are added at a rate of 5 μl per well. The plates are then incubated for 18 hours at 37° C. and 7% CO2. The culture medium is removed by turning over and 100 μl of a 1:1 PBS/luciferine mixture are added to each well. After 5 minutes, the plates are read by the luminescence detector.

PPARα = target: T2, PPARα (Homo sapiens, UniProt Q07869); experiment: Crossover-curve PPAR transactivation test (PPARα); format: cell-based; details: HeLN cells stably transfected with ERE-βGlob-Luc-SV-Neo and Gal-hPPARα; Schild regression against reference agonist; n.a. means not active; read-out: PPARα Kd app
T2 sequence (Q07869 200-468 limits assumed): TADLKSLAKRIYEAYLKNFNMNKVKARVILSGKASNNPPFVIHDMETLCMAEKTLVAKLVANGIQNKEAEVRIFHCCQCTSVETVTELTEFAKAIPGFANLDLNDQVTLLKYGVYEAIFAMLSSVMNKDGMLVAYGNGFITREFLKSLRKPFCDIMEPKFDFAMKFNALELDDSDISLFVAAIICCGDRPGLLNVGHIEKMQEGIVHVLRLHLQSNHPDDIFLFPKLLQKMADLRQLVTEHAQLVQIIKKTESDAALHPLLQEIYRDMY
Method: as §1, §2, §3, §4, §5

Compound | Kd (PPARγ) | Kd (PPARα)
CCCCCCCC(=O)N(C)Cc1cc(-c2ccc(C[C@H](OCC)C(=O)O)cc2)cs1 [Example 5, 2(S)-Ethoxy-3-(4-{5-[(methyloctanoylamino)methyl]thiophen-3-yl}phenyl)propanoic acid] | 0.06 nM | 4000 nM
CCCCCCCC(=O)N(C)Cc1ccc(-c2ccc(C[C@H](OCC)C(=O)O)cc2)s1 [Example 6, 2(S)-Ethoxy-3-(4-{5-[(methyloctanoylamino)methyl]thiophen-2-yl}phenyl)propanoic acid] | 2 nM | 1000 nM
CCCCCCCNC(=O)N(C)c1ncc(-c2ccc(C[C@H](OCC)C(=O)O)cc2)s1 [Example 7, 2(S)-Ethoxy-3-{4-[2-(3-heptyl-1-methylureido)thiazol-5-yl]phenyl}propanoic acid] | 60 nM | 2000 nM
CCCCCNC(=O)N(C)c1ncc(-c2ccc(C[C@H](OCC)C(=O)O)cc2)s1 [Example 8, 2(S)-Ethoxy-3-{4-[2-(1-methyl-3-pentylureido)thiazol-5-yl]phenyl}propanoic acid] | 30 nM | 
CCCCCCCNC(=O)N(C)c1cccc(-c2ccc(C[C@H](OCC)C(=O)O)cc2)n1 [Example 10, 2(S)-Ethoxy-3-{4-[6-(3-heptyl-1-methylureido)pyrid-2-yl]phenyl}propanoic acid hydrochloride] | 0.5 nM | 120 nM
CCCCCC(=O)N(C)Cc1cc(-c2ccc(C[C@H](Nc3ccccc3C(=O)c3ccccc3)C(=O)O)cc2)cs1 [Example 15, 2(S)-(2-Benzoylphenylamino)-3-(4-{5-[(hexanoylmethylamino)methyl]thiophen-3-yl}phenyl)propanoic acid] | 1000 nM | 2000 nM
CCCCCCCNC(=O)N(C)c1cccc(-c2ccc(CC(OCC)C(=O)O)cn2)c1 (stereo not shown) [Example 20, 2-Ethoxy-3-{6-[3-(3-heptyl-1-methylureido)phenyl]pyrid-3-yl}propanoic acid] | 4 nM | 
N-{3-[5-(2,4-dioxothiazolidin-5-ylmethyl)pyrid-2-yl]benzyl}-N-methyloctanoylamide [Example 4] | 500 nM | 
